Read-outs that look alike come from different tables or passages of the source.
Columns and labels:
Experiment in all cases: Pull-down assay with immobilized protein and LSM libraries
[1] = target: T1, CaM (Bos taurus, UniProt P62157); type: binding, bovine
T1 construct: made in house; host or cells: E. coli BL21 (DE3)
Outline: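 CaM buffer was 20 mM HEPES pH 7.4, 150 mM NaCl, 5 mM CaCl2. LSM sublibrary members ([…]) incubated 30 min, RT, with equimolar His-tagged protein on Co-NTA resin. HPLC-MS measured unbound probes; bound fraction relative to resin-only background gave dissociation constants.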

[2] = target: T2, S100A4 (Homo sapiens, UniProt P26447); type: binding; settings: 1:1 binding assumed, read-out: Surface mapping KD (apparent)
T2 construct: made in house; host or cells: Escherichia coli BL21(DE3)
T2 sequence (P26447 whole entry): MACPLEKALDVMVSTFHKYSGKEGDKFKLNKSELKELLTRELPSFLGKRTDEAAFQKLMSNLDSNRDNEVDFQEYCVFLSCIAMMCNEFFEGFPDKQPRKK
Outline: (§1)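 Buffers were HEPES pH 7.4 with 150 mM NaCl, plus 1 mM TCEP and 1 mM CaCl2 (50 mM HEPES) for S100A4 and S100B, 1 mM TCEP for Gal-1, and no additive for RecQ-WH. Immobilized protein at 64 µM was equilibrated 30 min with the LSM sublibrary, and unbound probes were measured by LC-MS.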

[3] = target: T3, S100B (Homo sapiens, UniProt P04271); type: binding; settings: H12 library; 1:1 binding assumed; read-out: Surface mapping KD (apparent)
T3 construct: made in house; host or cells: Escherichia coli BL21(DE3)
T3 sequence (P04271 1-92): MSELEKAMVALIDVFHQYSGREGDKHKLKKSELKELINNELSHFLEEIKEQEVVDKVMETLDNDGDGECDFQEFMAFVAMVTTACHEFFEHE
Outline: as §1

[4] = target: T4, Gal-1 (Homo sapiens, UniProt P09382); type: binding; settings: 1:1 binding assumed, read-out: Surface mapping KD (apparent)
T4 construct: made in house; host or cells: E. coli BL21(DE3)
T4 sequence (P09382 whole entry): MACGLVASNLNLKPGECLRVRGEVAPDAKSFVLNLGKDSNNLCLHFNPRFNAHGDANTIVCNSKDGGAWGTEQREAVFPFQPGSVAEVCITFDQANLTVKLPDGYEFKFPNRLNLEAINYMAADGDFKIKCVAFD
Outline: as §1

[5] = H12 library, 1:2 stoichiometry assumed, read-out: Surface mapping KD (apparent)
[6] = H14 library, 1:2 stoichiometry assumed, read-out: Surface mapping KD (apparent)

Compound | Kd ([2]; H12 library) [µM] | Kd [3] [µM] | Kd [1, 5] [µM] | also measured
CSCC[C@@H](CC(=O)N[C@H]1CCC[C@@H]1C(=O)N[C@H]1CCC[C@@H]1C(N)=O)NC(=O)[C@H]1CCC[C@@H]1NC(=O)[C@H]1CCC[C@@H]1NC(=O)C[C@H](Cc1ccccc1)NC(=O)[C@H]1CCC[C@@H]1NC(=O)[C@H]1CCC[C@@H]1N [H12 FM] | 197 | 39 |  | Kd [1]: 42 µM
N=C(N)NCCC[C@@H](CC(=O)N[C@H]1CCC[C@@H]1C(=O)N[C@H]1CCC[C@@H]1C(N)=O)NC(=O)[C@H]1CCC[C@@H]1NC(=O)[C@H]1CCC[C@@H]1NC(=O)C[C@H](CC(N)=O)NC(=O)[C@H]1CCC[C@@H]1NC(=O)[C@H]1CCC[C@@H]1N [H12 NR] | 245 | 106 |  | 
CC[C@H](C)[C@@H](CC(=O)N[C@H]1CCC[C@@H]1C(=O)N[C@H]1CCC[C@@H]1C(N)=O)NC(=O)[C@H]1CCC[C@@H]1NC(=O)[C@H]1CCC[C@@H]1NC(=O)C[C@H](Cc1ccc(O)cc1)NC(=O)[C@H]1CCC[C@@H]1NC(=O)[C@H]1CCC[C@@H]1N [H12 YI] | 283 | 64 |  | Kd ([4]; H12 library): 319 µM
C[C@@H](CC(=O)N[C@H]1CCCC[C@@H]1C(N)=O)NC(=O)[C@H]1CCCC[C@@H]1NC(=O)[C@H]1CCCC[C@@H]1NC(=O)C[C@H](C)NC(=O)[C@H]1CCCC[C@@H]1N [H14 AA] |  |  |  | Kd [1, 6]: 402 µM; Kd ([2]; H14 library): 205 µM; Kd ([4]; H14 library): 326 µM
NC(=O)C[C@@H](CC(=O)N[C@H]1CCCC[C@@H]1C(N)=O)NC(=O)[C@H]1CCCC[C@@H]1NC(=O)[C@H]1CCCC[C@@H]1NC(=O)C[C@H](Cc1ccccc1)NC(=O)[C@H]1CCCC[C@@H]1N [H14 FN] |  |  |  | Kd [1, 6]: 90 µM; Kd ([2]; H14 library): 337 µM

More lines, main results first:

Kd ([2]; H12 library) [µM] | Kd [3] [µM] | Kd [1, 5] [µM] | Compound | also measured
303 | 32 | 74 | CSCC[C@@H](CC(=O)N[C@H]1CCC[C@@H]1C(=O)N[C@H]1CCC[C@@H]1C(=O)N[C@H](CC(=O)N[C@H]1CCC[C@@H]1C(=O)N[C@H]1CCC[C@@H]1C(N)=O)Cc1ccccc1)NC(=O)[C@H]1CCC[C@@H]1NC(=O)[C@H]1CCC[C@@H]1N [H12 MF] | 
245 | 81 | 98 | CSCC[C@@H](CC(=O)N[C@H]1CCC[C@@H]1C(=O)N[C@H]1CCC[C@@H]1C(=O)N[C@H](CC(=O)N[C@H]1CCC[C@@H]1C(=O)N[C@H]1CCC[C@@H]1C(N)=O)CC(C)C)NC(=O)[C@H]1CCC[C@@H]1NC(=O)[C@H]1CCC[C@@H]1N [H12 ML] | 
170 | 26 | 42 | CSCC[C@@H](CC(=O)N[C@H]1CCC[C@@H]1C(=O)N[C@H]1CCC[C@@H]1C(=O)N[C@H](CC(=O)N[C@H]1CCC[C@@H]1C(=O)N[C@H]1CCC[C@@H]1C(N)=O)Cc1c[nH]c2ccccc12)NC(=O)[C@H]1CCC[C@@H]1NC(=O)[C@H]1CCC[C@@H]1N [H12 MW] | 
230 |  | 99 | NC(=O)C[C@@H](CC(=O)N[C@H]1CCC[C@@H]1C(=O)N[C@H]1CCC[C@@H]1C(=O)N[C@@H](CO)CC(=O)N[C@H]1CCC[C@@H]1C(=O)N[C@H]1CCC[C@@H]1C(N)=O)NC(=O)[C@H]1CCC[C@@H]1NC(=O)[C@H]1CCC[C@@H]1N [H12 NS] | 
422 | 133 |  | CC(C)[C@@H](CC(=O)N[C@H]1CCC[C@@H]1C(=O)N[C@H]1CCC[C@@H]1C(N)=O)NC(=O)[C@H]1CCC[C@@H]1NC(=O)[C@H]1CCC[C@@H]1NC(=O)C[C@H](CCCNC(=N)N)NC(=O)[C@H]1CCC[C@@H]1NC(=O)[C@H]1CCC[C@@H]1N [H12 RV] | Kd ([4]; H12 library): 226 µM
98 | 20 | 42 | CSCC[C@@H](CC(=O)N[C@H]1CCC[C@@H]1C(=O)N[C@H]1CCC[C@@H]1C(N)=O)NC(=O)[C@H]1CCC[C@@H]1NC(=O)[C@H]1CCC[C@@H]1NC(=O)C[C@H](Cc1c[nH]c2ccccc12)NC(=O)[C@H]1CCC[C@@H]1NC(=O)[C@H]1CCC[C@@H]1N [H12 WM] | 
180 | 81 |  | CC(C)C[C@@H](CC(=O)N[C@H]1CCC[C@@H]1C(=O)N[C@H]1CCC[C@@H]1C(N)=O)NC(=O)[C@H]1CCC[C@@H]1NC(=O)[C@H]1CCC[C@@H]1NC(=O)C[C@H](Cc1ccc(O)cc1)NC(=O)[C@H]1CCC[C@@H]1NC(=O)[C@H]1CCC[C@@H]1N [H12 YL] | Kd ([4]; H12 library): 402 µM

From article PMC8162404, “Proteomimetic surface fragments distinguish targets by function” (Chemical Science, 2020)
